Counter-ions that a name gives are not always drawn.
Tests used:
[1] = In vivo test - absorption in rats after oral administration (tranexamic acid recovered in urine); conditions: for Absorption after oral administration, in words: compared to tranexamic acid
Procedure: (§1) In the biological tests described in sections A, B and C below, the test compounds were used in trans form and in the form of hydrochloride salt. The test results given in Tables 1 and 2 are average values.
Rats were chosen to study the absorption after oral administration of compounds of the invention which are esters of tranexamic acid. Absorption of tranexamic acid itself is very poor in rats.
The determination of absorption in the rats was performed in the following way: Male rats in groups of three or four were given the test compound by gavage (1 mmol/kg-0.1 mmol/kg, 2 ml/kg). The urine was collected at the intervals 0-6, 6-24, 24-48 and 48-72 hours. At the end of each interval the cages were rinsed with 20 ml of distilled water, which also was collected and analysed. The urine sampls were then analysed for their content of tranexamic acid by a gaschromatographic method according to Wessman J., Stromberg S., Anal. Chem. 49 (1977) 369. The results are shown in table 1, where the total absorption is given as the molar amount of tranexamic acid which was recovered in the urine samples compared to the amount of administered test compound, also calculated as tranexamic acid.

[2] = test system: fibrinolytic activity induced by porcine tissue activator; test: Antifibrinolytic activity in chandler loop (inhibition of clot lysis induced by porcine tissue activator); format: biochemical, human blood; porcine tissue activator; conditions: for Percent inhibition of fibrinolytic activity induced by porcine tissue activator: 1 micromole/liter, human blood, 20 PU/ml porcine tissue activator, six hours, mean
Procedure: as §1
The antifibrinolytic properties of tranexamic acid and a number of compounds of the invention were tested in an artificial circulating blood system, the chandler loop (Chandler, A. B., In vitro thrombolytic coagulation of blood. A method for producing a thrombus. Lab.Invest. 7, 110, 1958.) Human blood was mixed with ^125 I-labelled fibrinogen, divided into 1.5 ml portions and filled into plastic tubings. After recalcification the loops were rotated for 24 hours during which ^125 I-labelled clots were formed. Fibrinolysis as measured with release of ^125 I-labelled fibrin degradation products from the clot, was initiated by adding 20 PU/ml of porcine tissue activator to the loops. Clot lysis was followed during six hours and the cumulative release of ^125 I FDP was plotted v.s. time of lysis. […] The effect on the clot lysis of compounds of the invention was tested in this system and compared to the inhibitory effect of tranexamic acid. No significant difference (p>0.05) between the antifibrinolytic effect of tranexamic acid and the tested compounds of the invention was found in this test system.

[3] = normally, clinical use; cited from earlier work
[4] = large oral intake, about 3 to about 6 grams per 24 hours; cited from earlier work
[5] = In vitro test - hydrolysis in human plasma (half life); format: in vitro ADME; conditions: 37° C., 2.3·10^-3 M, trans form, hydrochloride salt, HPLC, UV 210 nm
Text: as §1
(§2) The compounds of the present invention, which are esters of tranexamic acid, are converted to tranexamic acid in vivo either during the absorption through the gastro-intestinal wall or by enzymes present in the blood. In order to test the stability of compounds of the invention the half life in human plasma of a number of compounds of the invention was compared to the half life of the same ester in a phosphate buffer of the same pH. The half life, that is, the time within which the amount of unhydrolysed test compound is reduced by 50%, was calculated from the decrease of intact test compound with time. This decrease of intact test compound was monitored by UV-detection at 210 nm using high performance liquid chromatography (HPLC) in the reversed phase mode with mixtures of methanol and phosphate buffer as eluents. The stability in plasma was studied by addition of […] of plasma thermostated to 37° C. The concentration of the test compound in plasma amounted to 2.3·10^-3 M. The plasma samples were injected directly into the column after filtration. The half life in buffer solution were determined in the same way except that no filtration was needed.

[6] = In vitro test - hydrolysis in phosphate buffer pH 7.5 (half life); format: physicochemical; conditions: trans form, hydrochloride salt, HPLC, UV 210 nm
Text: as §1, §2

SMILES: NC[C@H]1CC[C@H](C(=O)O)CC1 [Tranexamic acid, trans-4-aminomethylcyclohexanecarboxylic acid]
- Absorption after oral administration, in words [1]: very poor
- dose excreted at 72 h ([1]; rat, po, male rats, by gavage, 1 mmol/kg-0.1 mmol/kg, 2 ml/kg, tranexamic acid recovered in urine 0-72 hours vs. amount administered, trans form, hydrochloride salt, read-out: Absorption Mole % (average values of four tests)): 11 ± 1.4%
- Percent inhibition of fibrinolytic activity induced by porcine tissue activator [2]: 25.6 ± 3.9%
- Antifibrinolytic effect / inhibition of clot lysis, in words ([2]; chandler loop): clot lysis was inhibited in a dose dependent manner
- Absorption of administered tranexamic acid, oral route [3]: 35-40%
- Undesired side effects, in words [4]: causes in some patients undesired side effects in the gastro-intestinal tract

SMILES: CC(=O)OC(C)OC(=O)[C@H]1CC[C@H](CN)CC1 (stereo partly drawn) [Example 5, 1-(acetyloxy) ethyl trans-4-aminomethylcyclohexanecarboxylate]
- half-life at 2300 µM [5]: 9 min
- Percent inhibition of fibrinolytic activity induced by porcine tissue activator [2]: 19.5 ± 4.7%

SMILES: CC(OC(=O)[C@H]1CC[C@H](CN)CC1)OC(=O)[C@H]1CC[C@H](CN)CC1 [Example 13, 1,1-Ethandiol bis-(trans-4-aminomethylcyclohexanecarboxylate) dihydrochloride]
- half-life at 2300 µM [6]: 70 h
- half-life at 2300 µM [5]: 11 min

SMILES: CC(C)(C)C(=O)OCOC(=O)[C@H]1CC[C@H](CN)CC1 [Example 1, pivaloyloxymethyl trans-4-aminomethylcyclohexanecarboxylate hydrochloride]
- half-life at 2300 µM [5]: 5 min
- Percent inhibition of fibrinolytic activity induced by porcine tissue activator [2]: 19.3 ± 4.3%

SMILES: CCOC(=O)OC(C)OC(=O)[C@H]1CC[C@H](CN)CC1 (stereo partly drawn) [Example 3, 1-(ethyloxycarbonyloxy)ethyl trans-4-aminomethylcyclohexanecarboxylate hydrochloride]
- half-life at 2300 µM [6]: 90 h
- half-life at 2300 µM [5]: 1.5 min
- Percent inhibition of fibrinolytic activity induced by porcine tissue activator [2]: 23.4 ± 5.1%

SMILES: CC(C)OC(=O)OC(C)OC(=O)[C@H]1CC[C@H](CN)CC1 (stereo partly drawn) [Example 4, 1-(isopropyloxycarbonyloxy)ethyl trans-4-aminomethylcyclohexanecarboxylate hydrochloride]
- Absorption after oral administration, in words [1]: absorbed to a very high degree
- Percent inhibition of fibrinolytic activity induced by porcine tissue activator [2]: 25.8 ± 5.5%

SMILES: CC(C)C(=O)OCOC(=O)[C@H]1CC[C@H](CN)CC1 [Example 6, isobutyryloxymethyl trans-4-aminomethylcyclohexanecarboxylate]
- half-life at 2300 µM [5]: 0.5 min
- Percent inhibition of fibrinolytic activity induced by porcine tissue activator [2]: 32.4 ± 5.3%

SMILES: NC[C@H]1CC[C@H](C(=O)OCOC(=O)[C@H]2CC[C@H](CN)CC2)CC1 [Example 11, methandiol bis-(trans-4-aminomethylcyclohexanecarboxylate) dihydrochloride]
- half-life at 2300 µM [6]: 26 h
- half-life at 2300 µM [5]: 1.5 min

SMILES: CN(C)C(=O)C(OC(=O)[C@H]1CC[C@H](CN)CC1)OC(=O)[C@H]1CC[C@H](CN)CC1 [Example 16, 2,2-dihydroxy-N,N-dimethylacetamide bis-(trans-4-aminomethylcyclohexanecarboxylate)]
- Percent inhibition of fibrinolytic activity induced by porcine tissue activator [2]: 32.2 ± 4.7%

SMILES: CC(OC(=O)C(C)C)OC(=O)[C@H]1CC[C@H](CN)CC1 (stereo partly drawn) [Example 7, 1-(isobutyryloxy)ethyl trans-4-aminomethylcyclohexanecarboxylate]
- Percent inhibition of fibrinolytic activity induced by porcine tissue activator [2]: 23.8 ± 5.7%

— patent US4483867A, “Antifibrinolytically active derivatives of tranexamic acid” (KabiVitrum AB, priority 1981, dated 1984)
